Reference: patent US6031135A, “Trimethylsphingosine derivatives” (Oncomembrane, Inc., priority 1996, dated 2000)
Entries after “also recorded” stand apart in the source; their conditions may differ.

Key:
[1] = water solubility; assay type: physicochemical; details: particularly at physiologic pH
[2] = system: 40 kD (or 47 kD) platelet protein; experiment: phosphorylation of platelet protein on thrombin stimulation; assay type: cell-based
Description: On thrombin stimulation, a 40 kD (or 47 kD) platelet protein is phosphorylated. […] While not wanting to be bound by their statement, the inventors believe that absence of phosphorylated 40 kD (or 47 kD) protein prevents platelet aggregation.

[3] = system: erythrocyte; experiment: erythrocyte metabolic activity under blood storage conditions; assay type: cell-based; details: in vitro, normal blood storage conditions; reduction of erythrocyte enzyme activity
Description: Similar results can be expected for leukocytes and platelets.

[4] = system: neutrophils; experiment: superoxide production in neutrophils (reduction of cytochrome C); assay type: cell-based, human
Protocol: Human neutrophils were obtained from normal male adults. Heparinized peripheral blood was mixed gently with an equal amount of 1% dextran solution in PBS in a 60 ml injection syringe. The mixture was allowed to sit vertically for 60 to 90 minutes at 37° C. The upper phase, which is rich in white blood cells, was mounted gently on the same volume of Ficoll-Paque (Pharmacia LKB, Uppsala, Sweden) in Falcon 2095 plastic test tubes (Becton Dickinson Labware, Lincoln Park, N.J.). Centrifugation at 450g for 30 min at 4° C. brought the neutrophils to the bottom of the tubes. The upper phase and interface, which contains lymphocytes, were removed carefully by aspiration.
Contaminating erythrocytes were removed from the cell pellet by hypotonic lysis by resuspending the cell pellet in ice-cold distilled water for 30 sec then adding an equal volume of ice-cold 1.8% NaCl solution. After centrifugation at 80g for 10 min, the cells were resuspended with a suitable buffer or media.
The final preparation consisted of more than 98% neutrophils, as determined by Wright-Giemsa staining. The suspension was stored at 4° C. and used within 3 hr.

[5] = system: neutrophils; experiment: PMA-dependent O2 consumption of neutrophils; assay type: cell-based, human
[6] = system: neutrophils; experiment: neutrophil trans-endothelial migration through HUVEC monolayer; assay type: cell-based, human; details: IL-1β-activated EC's; pre-treatment of neutrophils
Protocol: A characteristic of neutrophils is the ability to adhere to activated EC's and to migrate through the EC monolayer into the vascular or extravascular matrix. The effect of TMS on neutrophil interactions with EC's and their subsequent trans-endothelial migration thereof can be monitored in vitro using human umbilical endothelial cells (HUVEC's) (Luscinskas et al., J. Imm., 146, 1617, 1991). Neutrophils are added to a HUVEC monolayer and neutrophil-HUVEC interactions are assessed microscopically following fixation, embedding and staining of monolayer sections.
Under physiological conditions, neutrophils are able to migrate into the collagenous matrix through the EC monolayer. When EC's are activated with IL-1β in M199 medium for 4 hours, neutrophils migrate into the collagenous matrix within 90 minutes.

[7] = system: 47 kDa and 65 kDa proteins; experiment: PMA-stimulated protein phosphorylation in 32P-labeled neutrophils; assay type: cell-based, human; details: neutrophils pre-incubated with 15-45 μM, then 1.5 μM PMA
Protocol: Excess unbound components were removed by centrifugation and the pellets were resuspended in the same buffer, repeating twice. The cells then were divided into 7 treatment groups, each containing ≈1×10^7 cells in a total volume of 0.4 ml. TMS, SPN or DMS was added to a suspension and incubated at 37° C. for 10 min, followed by addition of PMA to a final concentration of 1.5 μM. Two minutes later, the reaction was terminated by adding 0.1 ml of Laemmli sample buffer and 20 mM EDTA, followed by heating at 100° C. for 5 min. Aliquots were separated through 10% sodium dodecyl sulfate gels using known procedures. ^32 P incorporation was visualized by autoradiography.

[8] = system: neutrophils; experiment: fMLP-enhanced 32P incorporation into PI, PIP and PIP2 in neutrophils; assay type: cell-based, human; details: fMLP 1 μM; pre-incubation of neutrophils
Protocol: Metabolic incorporation of [^32 P]sodium phosphate (4 mCi) into phosphatidylinositol (PI), phosphatidylinositol-4-phosphate (PIP) and phosphatidylinositol-4,5-bis-diphosphate (PIP2) is enhanced by chemotactic peptide fMLP (1 μM).

Question: With `CCCCCCCCCCCCC/C=C/C(O)C(CO)[N+](C)(C)C` (centres unmarked) [TMS, N,N,N-trimethylsphingosine] as the molecule, how does the water solubility [1] read?
Answer: highly water soluble

Question: And the “phosphorylation of the 40 kD (or 47 kD) platelet protein” value [2]?
Answer: inhibits phosphorylation

Question: And the erythrocyte metabolic activity [3]?
Answer: retards erythrocyte metabolic activity

Question: What about the “Superoxide production in neutrophils” value [4] of the same molecule?
Answer: inhibited by TMS in a dose-dependent manner

Question: And the “PMA-dependent enhancement of O2 consumption” value [5]?
Answer: inhibited strongly

Question: What about the Neutrophil migration [6] of the same molecule?
Answer: inhibited strongly

Question: And the “phosphorylation of 47 kDa and 65 kDa proteins” value [7]?
Answer: diminished significantly; also recorded: had an affect on phosphorylation

Question: And the “fMLP-dependent enhancement of 32P incorporation into PI, PIP and PIP2” value [8]?
Answer: suppressed strongly
